Laboratory results taken from PubChem BioAssay AID1259407 (Chemical Carcinogenesis Research Information System (CCRIS), 2018).
The source made the active and inactive calls. The rule behind the calls is not given here.

System: CCRIS mutagenicity, Ames/micronucleus/aberration tests
Assay: CCRIS mutagenicity studies
[1] = Test System: AMES SALMONELLA TYPHIMURIUM, Strain/Indicator: TA98, Metabolic Activation: NONE, Method: PREINCUBATION
[2] = Test System: AMES SALMONELLA TYPHIMURIUM, Strain/Indicator: TA100, Metabolic Activation: NONE, Method: PREINCUBATION
[3] = Test System: AMES SALMONELLA TYPHIMURIUM, Strain/Indicator: TA1535, Metabolic Activation: NONE, Method: PREINCUBATION
[4] = Test System: AMES SALMONELLA TYPHIMURIUM, Strain/Indicator: TA1535, Metabolic Activation: RAT, LIVER, S-9, AROCLOR 1254 (10%), Method: PREINCUBATION
[5] = Test System: AMES SALMONELLA TYPHIMURIUM, Strain/Indicator: TA1537, Metabolic Activation: NONE, Method: PREINCUBATION

Measured: mutagenic call

Cc1cc(C)n(-c2nnc(NN)c3c2[nH]c2ccccc23)n1
inactive: [1] inactive; negative | Test System: AMES SALMONELLA TYPHIMURIUM, Strain/Indicator: TA98, Metabolic Activation: RAT, LIVER, S-9, AROCLOR 1254 (4 OR 10%), Method: PREINCUBATION inactive; negative | [2] inactive; negative | Test System: AMES SALMONELLA TYPHIMURIUM, Strain/Indicator: TA100, Metabolic Activation: RAT, LIVER, S-9, AROCLOR 1254 (4 OR 10%), Method: PREINCUBATION inactive; negative | [3] inactive; negative | [4] inactive; negative | [5] inactive; negative | Test System: AMES SALMONELLA TYPHIMURIUM, Strain/Indicator: TA1537, Metabolic Activation: RAT, LIVER, S-9, AROCLOR 1254 (4 OR 10%), Method: PREINCUBATION inactive; negative

CCC(C)(C)c1cc(-n2nc3ccccc3n2)c(O)c(C(C)(C)CC)c1
inactive: Test System: AMES SALMONELLA TYPHIMURIUM, Strain/Indicator: TA97, Metabolic Activation: NONE, Method: STANDARD PLATE inactive; negative | Test System: AMES SALMONELLA TYPHIMURIUM, Strain/Indicator: TA97, Metabolic Activation: S-9, Method: STANDARD PLATE inactive; negative | Test System: AMES SALMONELLA TYPHIMURIUM, Strain/Indicator: TA98, Metabolic Activation: NONE, Method: STANDARD PLATE inactive; negative | Test System: AMES SALMONELLA TYPHIMURIUM, Strain/Indicator: TA98, Metabolic Activation: S-9, Method: STANDARD PLATE inactive; negative | Test System: AMES SALMONELLA TYPHIMURIUM, Strain/Indicator: TA100, Metabolic Activation: NONE, Method: STANDARD PLATE inactive; negative | Test System: AMES SALMONELLA TYPHIMURIUM, Strain/Indicator: TA100, Metabolic Activation: S-9, Method: STANDARD PLATE inactive; negative | Test System: AMES SALMONELLA TYPHIMURIUM, Strain/Indicator: TA102, Metabolic Activation: NONE, Method: STANDARD PLATE inactive; negative | Test System: AMES SALMONELLA TYPHIMURIUM, Strain/Indicator: TA102, Metabolic Activation: S-9, Method: STANDARD PLATE inactive; negative | Test System: E.COLI, Strain/Indicator: WP2 (PKM101), Metabolic Activation: NONE, Method: STANDARD PLATE inactive; negative | Test System: E.COLI, Strain/Indicator: WP2 (PKM101), Metabolic Activation: S-9, Method: STANDARD PLATE inactive; negative

CCOC(=O)c1ccccc1N
inactive: Test System: AMES SALMONELLA TYPHIMURIUM, Strain/Indicator: TA98, Metabolic Activation: HAMSTER, LIVER, S-9, AROCLOR 1254 (10%), Method: PREINCUBATION inactive; negative | [1] inactive; negative | Test System: AMES SALMONELLA TYPHIMURIUM, Strain/Indicator: TA98, Metabolic Activation: RAT, LIVER, S-9, AROCLOR 1254 (10%), Method: PREINCUBATION inactive; negative | Test System: AMES SALMONELLA TYPHIMURIUM, Strain/Indicator: TA100, Metabolic Activation: HAMSTER, LIVER, S-9, AROCLOR 1254 (10%), Method: PREINCUBATION inactive; negative | [2] inactive; negative | Test System: AMES SALMONELLA TYPHIMURIUM, Strain/Indicator: TA100, Metabolic Activation: RAT, LIVER, S-9, AROCLOR 1254 (10%), Method: PREINCUBATION inactive; negative | Test System: AMES SALMONELLA TYPHIMURIUM, Strain/Indicator: TA1535, Metabolic Activation: HAMSTER, LIVER, S-9, AROCLOR 1254 (10%), Method: PREINCUBATION inactive; negative | [3] inactive; negative | [4] inactive; negative | Test System: AMES SALMONELLA TYPHIMURIUM, Strain/Indicator: TA1537, Metabolic Activation: HAMSTER, LIVER, S-9, AROCLOR 1254 (10%), Method: PREINCUBATION inactive; negative | [5] inactive; negative | Test System: AMES SALMONELLA TYPHIMURIUM, Strain/Indicator: TA1537, Metabolic Activation: RAT, LIVER, S-9, AROCLOR 1254 (10%), Method: PREINCUBATION inactive; negative

O=c1c2c(O)cccc2oc2cc3c(c(O)c12)[C@@H]1CCO[C@@H]1O3
inactive: Test System: AMES SALMONELLA TYPHIMURIUM, Strain/Indicator: TA98, Metabolic Activation: RAT, LIVER, S-9, PHENOBARBITAL, Method: STANDARD PLATE inactive; negative | Test System: AMES SALMONELLA TYPHIMURIUM, Strain/Indicator: TA100, Metabolic Activation: RAT, LIVER, S-9, PHENOBARBITAL, Method: STANDARD PLATE inactive; negative

Cc1ccc2cccc([N+](=O)[O-])c2c1
active: [1] active; positive

ClC1(Cl)C2(Cl)C3(Cl)C4(Cl)C(Cl)(Cl)C5(Cl)C3(Cl)C1(Cl)C5(Cl)C24Cl (configuration not stated)
inactive: Test System: AMES SALMONELLA TYPHIMURIUM, Strain/Indicator: TA98, Metabolic Activation: HAMSTER, LIVER, S-9, AROCLOR 1254, Method: PREINCUBATION inactive; negative | [1] inactive; negative | Test System: AMES SALMONELLA TYPHIMURIUM, Strain/Indicator: TA98, Metabolic Activation: RAT, LIVER, S-9, AROCLOR 1254, Method: PREINCUBATION inactive; negative | Test System: AMES SALMONELLA TYPHIMURIUM, Strain/Indicator: TA100, Metabolic Activation: HAMSTER, LIVER, S-9, AROCLOR 1254, Method: PREINCUBATION inactive; negative | [2] inactive; negative | Test System: AMES SALMONELLA TYPHIMURIUM, Strain/Indicator: TA100, Metabolic Activation: RAT, LIVER, S-9, AROCLOR 1254, Method: PREINCUBATION inactive; negative | Test System: AMES SALMONELLA TYPHIMURIUM, Strain/Indicator: TA1535, Metabolic Activation: HAMSTER, LIVER, S-9, AROCLOR 1254, Method: PREINCUBATION inactive; negative | [3] inactive; negative | Test System: AMES SALMONELLA TYPHIMURIUM, Strain/Indicator: TA1535, Metabolic Activation: RAT, LIVER, S-9, AROCLOR 1254, Method: PREINCUBATION inactive; negative | Test System: AMES SALMONELLA TYPHIMURIUM, Strain/Indicator: TA1537, Metabolic Activation: HAMSTER, LIVER, S-9, AROCLOR 1254, Method: PREINCUBATION inactive; negative | [5] inactive; negative | Test System: AMES SALMONELLA TYPHIMURIUM, Strain/Indicator: TA1537, Metabolic Activation: RAT, LIVER, S-9, AROCLOR 1254, Method: PREINCUBATION inactive; negative

Nc1ccc2c(c1)Cc1cc([N+](=O)[O-])ccc1-2
active: Test System: AMES SALMONELLA TYPHIMURIUM, Strain/Indicator: TA98, Metabolic Activation: HAMSTER, LIVER, S-9, 3-METHYLCHOLANTHRENE, Method: STANDARD PLATE active; positive | Test System: AMES SALMONELLA TYPHIMURIUM, Strain/Indicator: TA98, Metabolic Activation: HAMSTER, LIVER, S-9, Method: STANDARD PLATE active; positive
